Assay results as given in article PMC3632010, “V101L of human formyl peptide receptor 1 (FPR1) increases receptor affinity and augments the antagonism mediated by cyclosporins” (Biochemical Journal, 2013).
Numbering of substitutions follows the chain as printed. Several values for one entry are separate records, joined by “and”; a condition that tells them apart may be missing. Equal entries are not always repeated. Square brackets hold non-standard residues; d marks the D form. Peptide text beside a SMILES is read from it. * marks the point of attachment. FITC = O=C1OC2(c3ccc(O)cc3Oc3cc(O)ccc32)c2ccc(NC(=S)*)cc21; Nle = CCCC[C@H](N)C(=O)O; For = O=C*

Experiments:
CHO-Gα16-FPR1 cells = test: fMLF-induced ERK1/2 phosphorylation, CHO-Gα16-FPR1 cells; assay type: cell-based, human; settings: fMLF 10 nM, 5 min, Western blot
Experimental: Activation of the p44/p42 MAPKs (ERK1/2) was determined as described previously [12] with modest modifications. Briefly, cells were cultured in 24-well plates at 5×10^5 cells/well for 24 h and serum starved for 2 h. They were pretreated with the indicated amounts of cyclosporins for 5 min before fMLF (10 nM) stimulation in HBSS/BSA. […] Samples were transferred to microcentrifuge tubes and sonicated twice for 5 s each to disperse DNA contents. After boiling, samples were analysed by SDS/PAGE and Western blotting using anti-ERK1/2 and anti-phospho-ERK1/2 antibodies at a 1:1000 dilution. Horseradish peroxidase-conjugated anti-rabbit antibody (1:3000 dilution) was used as the secondary antibody. The resulting immunocomplex was visualized using the SuperSignal West Pico chemiluminescence kit (Pierce Biotechnology) according to the manufacturer's instructions. The relative intensities of the bands from the PVDF membrane (Millipore) were quantified using the ChemDoc MP System (Bio-Rad) and Image-Pro Plus software (MediaCybernetics).

[1] = system: CHO-Gα16-FPR1 haplotype-expressing cells; test: Calcium mobilization by fMLF, four cell lines; assay type: cell-based, human; settings: CH1, CH2, CH3 and CH5 cells; different concentrations of fMLF
Experimental: A calcium mobilization assay was performed as described previously with minor modifications [33]. Briefly, CHO-Gα16-FPR1 cells were plated on to 96-well plates at a density of 15000 cells in 100 μl of medium per well and incubated for 24 h. Cells were loaded with 5 μM Fluo-4/AM in HBSS (Hanks balanced saline solution) supplemented with 2.5 mM probenecid for 45 min and then washed twice with HBSS.

FPR1 haplotype CH8 = target: T1, FPR1 haplotype CH8 (Homo sapiens, UniProt P21462, I11T/V101L); test: FACScan saturation binding of fNLFNYK–FITC, CH8 cells; settings: CHO-Gα16 cells, 4°C, 1 h
T1 construct: Vectors including FPR1 ORFs were transfected into CHO-Gα16 cells; expressed in transfected cells
T1 sequence (P21462 1-350 I11T/V101L): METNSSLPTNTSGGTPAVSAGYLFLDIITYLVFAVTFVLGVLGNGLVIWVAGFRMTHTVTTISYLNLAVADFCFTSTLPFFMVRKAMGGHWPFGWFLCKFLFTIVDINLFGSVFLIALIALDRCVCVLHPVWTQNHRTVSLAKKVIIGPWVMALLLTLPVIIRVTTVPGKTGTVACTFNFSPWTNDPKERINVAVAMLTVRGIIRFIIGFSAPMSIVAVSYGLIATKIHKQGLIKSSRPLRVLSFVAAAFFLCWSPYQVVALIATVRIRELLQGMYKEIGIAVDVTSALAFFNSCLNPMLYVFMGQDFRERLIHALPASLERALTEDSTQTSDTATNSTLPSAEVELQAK
Experimental: (§1) Stable clones expressing FPR1 haplotypes were selected after 10 days of culture under the selection of 600 μg/ml G418 and identified by FACScan analysis after binding of 20 nM of the fluorescent ligand fNLFNYK–FITC to the CHO cell transfectants for 45 min at 4°C.
(§2) CHO cells were added to 3 mM KCl, 100 mM NaCl, 10 mM sodium phosphate, 1 mM Mg^2+ and 1 mM Ca^2+, pH 7.4, containing 5% fetal bovine serum and incubated at 4°C for 1 h with various concentrations of fNLFNYK–FITC. The mean fluorescence of the cells was determined after subtracting the readout of cells without fNLFNYK–FITC. The results were analysed by non-linear least squares analysis to determine Kd and Bmax values. […] Data from at least two different experiments in duplicate were analysed.

FPR1 haplotype CH3 = target: T2, FPR1 haplotype CH3 (Homo sapiens, UniProt P21462, E346A/I11T/N192K); test: FACScan saturation binding of fNLFNYK–FITC, CH3 cells; settings: CHO-Gα16 cells, 4°C, 1 h
T2 construct: Vectors including FPR1 ORFs were transfected into CHO-Gα16 cells; expressed in transfected cells
T2 sequence (P21462 1-350 I11T/N192K/E346A): T1 sequence (P21462 1-350 I11T/V101L) with L101V, N192K, E346A
Experimental: as §1, §2

FPR1 haplotype CH11 = target: T3, FPR1 haplotype CH11 (Homo sapiens, UniProt P21462); test: FACScan saturation binding of fNLFNYK–FITC, CH11 cells; settings: CHO-Gα16 cells, 4°C, 1 h
T3 construct: expressed in transfected cells
T3 sequence (P21462 1-350): T1 sequence (P21462 1-350 I11T/V101L) with T11I, L101V
Experimental: (§3) Transfection of FPR1 haplotype cDNAs into CHO-Gα16 cells was carried out with the Gene Pulser Xcell Electroporation System from Bio-Rad Laboratories. […] Vectors containing the ORFs of the human FPR1 gene (8 μg in a volume of 8 μl) were added to the cells. Following a 280 V and 20 ms pulse (squarewave), the cells were immediately returned to 10 ml of culture medium and incubated for 24 h. Stable clones expressing FPR1 haplotypes were selected after 10 days of culture under the selection of 600 μg/ml G418 and identified by FACScan analysis after binding of 20 nM of the fluorescent ligand fNLFNYK–FITC to the CHO cell transfectants for 45 min at 4°C.
as §2

FPR1 haplotype CH7 = test: FACScan saturation binding of fNLFNYK–FITC, CH7 cells; parameters: species or system human; settings: CHO-Gα16 cells, 4°C, 1 h
Experimental: as §1, §2

FPR1 haplotype CH9 = target: T4, FPR1 haplotype CH9 (Homo sapiens, UniProt P21462, E346A/I11T/R190W/V101L); test: FACScan saturation binding of fNLFNYK–FITC, CH9 cells; settings: CHO-Gα16 cells, 4°C, 1 h
T4 construct: expressed in transfected cells
T4 sequence (P21462 1-350 I11T/V101L/R190W/E346A): T1 sequence (P21462 1-350 I11T/V101L) with R190W, E346A
Experimental: as §1, §2

FPR1 haplotype CH4 = target: T5, FPR1 haplotype CH4 (Homo sapiens, UniProt P21462, I11T); test: FACScan saturation binding of fNLFNYK–FITC, CH4 cells; settings: CHO-Gα16 cells, 4°C, 1 h
T5 construct: Vectors including FPR1 ORFs were transfected into CHO-Gα16 cells; expressed in transfected cells
T5 sequence (P21462 1-350 I11T): T1 sequence (P21462 1-350 I11T/V101L) with L101V
Experimental: as §1, §2

FPR1 haplotype CH6 = target: T6, FPR1 haplotype CH6 (Homo sapiens, UniProt P21462, E346A/I11T/R190W); test: FACScan saturation binding of fNLFNYK–FITC, CH6 cells; settings: CHO-Gα16 cells, 4°C, 1 h
T6 construct: Vectors including FPR1 ORFs were transfected into CHO-Gα16 cells; expressed in transfected cells
T6 sequence (P21462 1-350 I11T/R190W/E346A): T1 sequence (P21462 1-350 I11T/V101L) with L101V, R190W, E346A
Experimental: as §1, §2

FPR1 haplotype CH12 = target: T7, FPR1 haplotype CH12 (Homo sapiens, UniProt P21462, V101L); test: FACScan saturation binding of fNLFNYK–FITC, CH12 cells; settings: CHO-Gα16 cells, 4°C, 1 h
T7 construct: expressed in transfected cells
T7 sequence (P21462 1-350 V101L): T1 sequence (P21462 1-350 I11T/V101L) with T11I
Experimental: as §1, §2

FPR1 haplotype CH5 = target: T8, FPR1 haplotype CH5 (Homo sapiens, UniProt P21462, E346A/I11T/N192K/V101L); test: FACScan saturation binding of fNLFNYK–FITC, CH5 cells; settings: CHO-Gα16 cells, 4°C, 1 h
T8 construct: Vectors including FPR1 ORFs were transfected into CHO-Gα16 cells; expressed in transfected cells
T8 sequence (P21462 1-350 I11T/V101L/N192K/E346A): T1 sequence (P21462 1-350 I11T/V101L) with N192K, E346A
Experimental: as §1, §2

FPR1 haplotypes = test: FACScan binding of fNLFNYK–FITC, different FPR1 haplotypes; parameters: species or system human; settings: different FPR1 haplotypes CH1–CH12
Experimental: as §3, §2

FPR1 haplotype CH2 = target: T9, FPR1 haplotype CH2 (Homo sapiens, UniProt P21462, E346A/I11T); test: FACScan saturation binding of fNLFNYK–FITC, CH2 cells; settings: CHO-Gα16 cells, 4°C, 1 h
T9 construct: Vectors including FPR1 ORFs were transfected into CHO-Gα16 cells; expressed in transfected cells
T9 sequence (P21462 1-350 I11T/E346A): T1 sequence (P21462 1-350 I11T/V101L) with L101V, E346A
Experimental: as §1, §2

FPR1 haplotype CH10 = test: FACScan saturation binding of fNLFNYK–FITC, CH10 cells; parameters: species or system human; settings: CHO-Gα16 cells, 4°C, 1 h
Experimental: as §1, §2

FPR1 haplotype CH1 = target: T10, FPR1 haplotype CH1 (Homo sapiens, UniProt P21462, E346A/I11T/V101L); test: FACScan saturation binding of fNLFNYK–FITC, CH1 cells; settings: CHO-Gα16 cells, 4°C, 1 h
T10 construct: Vectors including FPR1 ORFs were transfected into CHO-Gα16 cells; expressed in transfected cells
T10 sequence (P21462 1-350 I11T/V101L/E346A): T1 sequence (P21462 1-350 I11T/V101L) with E346A
Experimental: as §1, §2

Bmax (FPR1 haplotype CH8) | Bmax (FPR1 haplotype CH3) | Bmax (FPR1 haplotype CH11) | Bmax (FPR1 haplotype CH9) | Bmax (FPR1 haplotype CH4) | Bmax (FPR1 haplotype CH6) | Bmax (FPR1 haplotype CH12) | Bmax (FPR1 haplotype CH5) | receptor affinity of fNLFNYK–FITC (in words) (FPR1 haplotypes) | Bmax (FPR1 haplotype CH2) | Bmax (FPR1 haplotype CH1) | Compound | phosphorylation of ERK1/2 (in words) (CHO-Gα16-FPR1 cells) | calcium mobilization (in words) [1] | Kd (FPR1 haplotype CH7; CH7 (T11/V101/R190/K192/E346), pH 7.4, FACScan, at least two experiments in duplicate) [nM] | Bmax (FPR1 haplotype CH7; CH7, FACScan) | Kd (FPR1 haplotype CH10; CH10 (T11/L101/W190/N192/E346), pH 7.4, FACScan, at least two experiments in duplicate) [nM] | Bmax (FPR1 haplotype CH10; CH10, FACScan)
 |  |  |  |  |  |  |  |  |  |  | N-formyl-methionyl-leucyl-phenylalanine [fMLF] | significant increase | elicited calcium mobilization dose-dependently |  |  |  | 
36362±353 | 59135±4185 | 37713±5841 | 39009±6672 | 33860 and 33860±4977 | 34093±693 | 65059 and 65059±3570 | 42575±4902 | varied moderately | 47657±9098 | 48336±4553 | CCCC[C@H](NC=O)C(=O)N[C@@H](CC(C)C)C(=O)N[C@@H](Cc1ccccc1)C(=O)N[C@@H](CCCC)C(=O)N[C@@H](Cc1ccc(O)cc1)C(=O)N[C@@H](CCCCNC(=S)Nc1ccc2c(c1)C(=O)OC21c2ccc(O)cc2Oc2cc(O)ccc21)C(=O)O [fNLFNYK–FITC, N-formyl-Nle-Leu-Phe-Nle-Tyr-Lys–FITC] (For-[Nle]LF[Nle]YK(FITC)-OH; N-terminus and C-terminus assumed) |  |  | 1.7 ± 0.3 | 60688±10388 | 2.4 ± 0.3 | 41751±615
